From patent US20170143646A1, “EFFECT OF LIPOPHILIC NUTRIENTS ON DIABETIC EYE DISEASES” (OmniActive Health Technologies Limited, priority 2014, published 2017)

Columns and labels:
Format in all cases: in vivo, rat
[1] = test system: Nerve Growth Factor (NGF); assay: NGF gene expression in retina by real-time PCR; conditions: diabetic retina, curcumin 0.01% diet
Procedure: (§1) Quantitative real-time PCR: Total RNA was extracted from the retina of rats using Tri reagent. Isolated RNA was further purified by RNeasy Mini Kit (Qiagen) and quantified by measuring the absorbance at 260 and 280 nm on ND1000 spectrophotometer (NanoDrop technologies, Delaware, USA). The quality of RNA preparation was assessed by electrophoresis on a denaturing agarose gel. Two μg of total RNA was reverse transcribed using High Capacity cDNA Reverse Transcription kit. Reverse transcription reaction was carried out with a thermocycler (ABI 9700). Real-time polymerase chain reaction (PCR) (ABI-7500) was performed in triplicates with 25 ng cDNA templates using SYBR green master mix with gene specific primers. Normalization and validation of data were carried using (3-actin as an internal control and data were compared between samples according to comparative threshold cycle (2^-ΔΔct) method.

[2] = test system: STZ-induced diabetic rats; assay: Size exclusion HPLC of lens soluble protein; conditions: vs Group-D
Procedure: (§2) Sodium dodecyl sulfate polyacrylamide gel electrophoresis (SDS-PAGE) and size exclusion chromatography of lens proteins: Subunit profile and cross-linking of soluble proteins were analyzed on 10% polyacrylamide in the presence of sodium dodecyl sulfate (SDS) under reducing conditions. Crystalline distribution in the soluble protein fraction was performed by size exclusion chromatography on a 600×7.5 mm TSK-G4000 SW column (TOSOH Co., Japan) using a HPLC system. The column was equilibrated with 0.1 M sodium phosphate buffer pH 6.7 containing 0.1 M sodium chloride at a flow rate of 1 ml/min.

[3] = test system: STZ-induced diabetic rats; assay: Slit lamp examination and cataract grading (diabetic cataract); conditions: end of ten weeks; lutein 0.5% or curcumin 0.01% in diet; Group-D stage 4
Procedure: Male Wistar strain (WNIN) rats (2 months old; Average BW of 213±14 g) obtained from the National Center for Laboratory Animal Sciences, National Institute of Nutrition, Hyderabad, India (NCLAS, NIN). Animals were maintained at NCLAS, NIN and kept for acclimatization in an experimental room for two weeks. Diabetes was induced in overnight fasted animals by a single intraperitoneal injection of STZ (30 mg/kg) in 0.1 M citrate buffer, pH 4.5. Another set of rats, which received only a vehicle, served as the control (Group I; n=12). Fasting blood glucose levels were measured 72 h after STZ injection. Animals having blood glucose levels >150 mg/dL were considered diabetic and those were only divided into five groups (Group II-VI). A group of control rats (n=6) were fed with 0.01% soluble curcumin (Group VII) and soluble 0.5% lutein alone (Group VIII).
Slit lamp examination and Cataract grading: Eyes were examined every week using a slit lamp bio microscope on dilated pupils. Initiation and progression of lens opacity was graded into five categories (0-4).
Cataract development and progression: Onset and progression of cataract is monitored by slit lamp biomicroscope examination as described below: Eyes were examined every week using a slit lamp biomicroscope (Kowa SL15, Portable, Japan) on dilated pupils.

[4] = test system: Nerve Growth Factor (NGF); assay: NGF protein in retina by immunofluorescence; conditions: diabetic retina, curcumin 0.01% diet
Procedure: (§3) Histopathology: The eye balls from selected animals were collected in fixative 4% paraformaldehyde solution in separately labeled vials. The tissues were given some nicks so as to facilitate penetration of fixative into deep tissue. They were kept at room temperature for 24-48 hrs followed by replacing the fixative with 20 mM sodium phosphate buffer. Buffer was scheduled to be replaced with fresh buffer one each week until histopathological processing. Tissues were embedded in paraffin and sections were taken in microtome. Coated slides are used for immunohistochemistry and immunofluorescence, whereas uncoated slides for hemotoxylin and eosin (H & E) staining.

Rhodopsin (Rho) [5] = assay: Rhodopsin protein in retina by immunofluorescence; conditions: diabetic retina, curcumin 0.01% diet
Procedure: as §3

Rhodopsin (Rho) [6] = assay: Rhodopsin mRNA in retina by real-time PCR; conditions: diabetic retina, curcumin 0.01% diet
Procedure: as §1

[7] = test system: STZ-induced diabetic rats; assay: SDS-PAGE protein profiling of lens soluble fraction; conditions: vs group-D
Procedure: as §2
SDS-PAGE protein profiling: Differences in protein distribution pattern were observed by running the lens protein samples on 12% polyacrylamide gel. 30 μg of protein was loaded per well along with molecular weight marker for SDS-PAGE (Broad range SDS-PAGE marker, BioRad). […] FIG. 3 represents the SDS-PAGE pattern of soluble fraction of lens proteins, as shown in the drawings accompanied with the specification.

[8] = test system: STZ-induced diabetic rats; assay: Total and soluble protein in lens homogenate (Lowry)
Procedure: Blood/Lens collection and processing: Blood was drawn once in every week from retro orbital plexus for glucose and insulin estimation. At the end of 12 weeks, animals were sacrificed by CO2 asphyxiation and lenses were dissected by posterior approach and stored at −70° C. until further analysis. A 10% homogenate was prepared from 3-5 pooled lenses in 50 mM phosphate buffer, pH 7.4. All the biochemical parameters were analyzed in the soluble fraction of the lens homogenate (15,000x g at 4° C.) except for lens malondialdehyde (MDA), which was determined in the total homogenate.
Biochemical estimations: Lens MDA, as thiobarbituric acid reacting substances (TBARS) protein carbonyl content were determined according to the methods for estimating the protein carbonyl content described by Suryanarayana P et al. in the research paper “Curcumin and turmeric delay streptozotocin-induced diabetic cataract in rats,” Invest Ophthalmol Vis Sci 2005; 46(6):2092-9. Total, soluble and insoluble protein was assayed by Lowry method using bovine serum albumin (BSA) as standard.
Individual lenses were weighed and pooled into 4 lenses for a pool, and such 4-5 pools were formed per group. A 10% homogenate was prepared in 50 mM sodium phosphate buffer pH 7.4, with tissue homogenizer at intermittent time gaps to avoid excess heat generation. Separate aliquots of total homogenate (TH) were made 250 μl for TBARS assay, 150 μl for sorbitol estimation, and 20 μl for protein estimation. Remaining homogenate was centrifuged at 10,000 RPM for 30 min at 4° C. Supernatant was separated into labelled vials, as total soluble protein (TSP).
Determining soluble percentage of protein in lens homogenate: Protein estimation was done in lens homogenate and soluble fraction by Lowry's method. Amount of protein present per gram weight of lens was calculated. Percentage of soluble protein was calculated by multiplying the fraction of soluble protein by 100.

[9] = test system: Platelet-derived growth factor (PDGF); assay: PDGF expression in retina by immunohistochemistry; conditions: diabetic retina, curcumin 0.01% diet
Procedure: as §3

[10] = test system: STZ-induced diabetic rats; assay: Retina histology (H & E), thickness of retinal layers; conditions: curcumin 0.01% diet, Table 6
Procedure: as §3
A representative table of retinal layers thickness (in μm) measured by the use of Lieca application suit, Leica, Switzerland. C, Non diabetic control; D, Diabetic control; D+RL, Diabetes+Regular Lutein; D+SL, Diabetes+Soluble Lutein; GCL, ganglion cell layer; IPL, inner plexiform layer; INL, inner nuclear layer; OPL, outer plexiform layer; ONL, outer nuclear layer; PRL, photo receptor layer.

[11] = test system: STZ-induced diabetic rats; assay: Electroretinogram, oscillatory potentials (OPs); conditions: curcumin 0.01% diet; D 334.2
Procedure: Experimental design: Male Wistar-NIN rats with an average body weight of 120 gms are obtained from the National center for laboratory animal sciences, National institute of Nutrition, Hyderabad (NCLAS, NIN). Animals were maintained at NCLAS, MN and kept for acclimatization in an experimental room for two weeks. Diabetes was induced in overnight fasted animals by a single intraperitoneal injection of STZ (30 mg/kg) in 0.1 M citrate buffer, pH 4.5. Another set of rats, which received only a vehicle, served as the control (Group-C; n=6). Fasting blood glucose levels were measured 72 h after STZ injection. Animals having blood glucose levels >150 mg/dL were considered diabetic and all the animals are divided into four groups as shown in the Table 3 below.
All the animals were housed in individual cages maintained on their respective diets for 12. weeks and drinking water was provided ad libitum throughout the study period. Daily food intake and weekly body weights, fasting glucose levels were noted. […]
Electroretinogram (ERG) Analysis: Diabetic retinoapthy is characterized by disturbances in retinal function. The retinal function can be assessed by electroretinogram. […]
Animals were dark-adapted for overnight and prepared for the ERG procedure under dim red illumination. […] The oscillatory potentials were extracted from the wave form and the sum of all OPs was calculated.

COc1cc(/C=C/C(=O)CC(=O)/C=C/c2ccc(O)c(OC)c2)ccc1O [RC, curcumin]
NGF gene expression [1]: equal beneficiary effect in preventing down regulation of NGF gene
size exclusion profile of total soluble protein (TSP) [2]: normalized the profile of TSP
severity of cataracts (stage 0-4) [3]: 3.0 stage
NGF protein [4]: prevented loss of NGF protein
Rho protein expression (Rhodopsin (Rho) [5]): prevented loss of Rho protein expression
mRNA levels of Rho gene (Rhodopsin (Rho) [6]): prevented its decline
band of aggregated proteins at ~50 kDa [7]: reduced band intensity
loss of soluble protein compared to group-D ([8]; lens): significantly prevented loss of soluble protein
Total protein ([8]; lens homogenate, mean ± SEM, n = 6, lutein 0.5% or curcumin 0.01% diet, 12 weeks): 368.50 ± 19.2 mg/gm lens
Soluble protein ([8]; lens soluble fraction, mean ± SEM, n = 6): 202.63 ± 21.6 mg/gm lens
PDGF expression [9]: inhibited diabetes induced PDGF over expression
GCL + IPL thickness [10]: 35.692 μ
INL thickness [10]: 13.648 μ
ONL thickness [10]: 30.108 μ
OPL thickness [10]: 5.685 μ
PRL thickness [10]: 19.520 μ
Total retinal thickness [10]: 106.014 μ
sum of OPs (amplitude) [11]: 445.7 μV
